This passage reports Kd, IC50 and inhibition results from ChEMBL document CHEMBL4387741, “Optimization of novel reversible Bruton's tyrosine kinase inhibitors identified using Tethering-fragment-based screens” (Bioorg Med Chem, 2019).

As usually defined, the Kd is a measure of binding affinity in units of concentration. Low readings indicate higher affinity, high ones lower affinity. In general, IC50 refers to the point on the concentration scale where inhibition reaches its midpoint. For orientation: inhibition means how much of the control response was suppressed. A lower inhibition goes with little suppression.

Assay [1] addresses Tyrosine-protein kinase ITK/TSK (Homo sapiens, UniProt Q08881). As to the kind of experiment: Binding affinity to wild-type human partial length ITK (R335 to L620 residues) expressed in bacterial expression system by Kinomescan method.
Assay [2] has as its target Tyrosine-protein kinase Tec (Homo sapiens, UniProt P42680). As to the kind of experiment: Binding affinity to wild-type human partial length TEC (L341 to D620 residues) expressed in bacterial expression system by Kinomescan method.
Assay [3] deals with Tyrosine-protein kinase TXK (Homo sapiens, UniProt P42681). As to the kind of experiment: Binding affinity to wild-type human partial length TXK tyrosine kinase (L238 to W527 residues) expressed in bacterial expression system by Kinomescan method.
Another assay concerns the target Cytochrome P450 3A4 (Homo sapiens, UniProt P08684). Nature of the assay: Inhibition of CYP3A4 (unknown origin).
In another assay the target is Cytochrome P450 2C9 (Homo sapiens, UniProt P11712). Nature of the assay: Inhibition of CYP2C9 (unknown origin).
The target of the next assay is Cytochrome P450 2C19 (Homo sapiens, UniProt P33261). As to the kind of experiment: Inhibition of CYP2C19 (unknown origin).
The target of a further assay is Cytochrome P450 1A2 (Homo sapiens, UniProt P05177). As to the kind of experiment: Inhibition of CYP1A2 (unknown origin).
The target in assay [4] is Tyrosine-protein kinase Blk (Homo sapiens) (UniProt P51451). Nature of the assay: Inhibition of wild-type human partial length BLK (G211 to L503 residues) expressed in bacterial expression system at 1 uM by Kinomescan method relative to control.
The target in assay [5] is Peripheral plasma membrane protein CASK (Homo sapiens) (UniProt O14936). Nature of the assay: Inhibition of wild-type human partial length CASK (M1 to H315 residues) expressed in mammalian expression system at 1 uM by Kinomescan method relative to control.
The test system of assay [6] is Epidermal growth factor receptor (Homo sapiens), P00533 [UNDEFINED MUTATION]. Nature of the assay: Inhibition of human partial length EGFR L747-E749del/A750P mutant expressed in bacterial expression system at 1 uM by Kinomescan method relative to control.
In assay [7] the target is Tyrosine-protein kinase Fgr (Homo sapiens) (UniProt P09769). As to the kind of experiment: Inhibition of wild-type human partial length FGR (L233 to T529 residues) expressed in bacterial expression system at 1 uM by Kinomescan method relative to control.
Assay [8] addresses Homeodomain-interacting protein kinase 4 (Homo sapiens) (UniProt Q8NE63). As to the kind of experiment: Inhibition of wild-type human partial length HIPK4 (M1 to V384 residues) expressed in bacterial expression system at 1 uM by Kinomescan method relative to control.
Assay [9] addresses Interleukin-1 receptor-associated kinase 3 (Homo sapiens) (UniProt Q9Y616). As to the kind of experiment: Inhibition of wild-type human partial length IRAK3 (V147 to E596 residues) expressed in bacterial expression system at 1 uM by Kinomescan method relative to control.
Assay [10] has as its system Mast/stem cell growth factor receptor Kit (Homo sapiens), P10721 [UNDEFINED MUTATION]. Nature of the assay: Inhibition of human partial length KIT V559D/V654 double mutant (Y545 to D952 residues) expressed in bacterial expression system at 1 uM by Kinomescan method relative to control.
In assay [11] the target is Tyrosine-protein kinase Lck (Homo sapiens) (UniProt P06239). As to the kind of experiment: Inhibition of wild-type human partial length LCK (R207 to P509 residues) expressed in bacterial expression system at 1 uM by Kinomescan method relative to control.
For assay [12], the target named is Serine/threonine-protein kinase MRCK alpha (Homo sapiens) (UniProt Q5VT25). Nature of the assay: Inhibition of wild-type human partial length MRCKA (L57 to V418 residues) expressed in bacterial expression system at 1 uM by Kinomescan method relative to control.
In assay [13] the test system is Phosphatidylinositol 4,5-bisphosphate 3-kinase catalytic subunit alpha isoform (Homo sapiens), P42336 [C420R]. Nature of the assay: Inhibition of human partial length PIK3CA C420R mutant (R108 to N1068 residues) expressed in mammalian expression system at 1 uM by Kinomescan method relative to control.
For assay [14], the target named is Serine/threonine-protein kinase pim-1 (Homo sapiens) (UniProt P11309). Nature of the assay: Inhibition of wild-type human partial length PIM1 (A15 to K313 residues) expressed in bacterial expression system at 1 uM by Kinomescan method relative to control.
Assay [15] addresses Serine/threonine-protein kinase pim-3 (Homo sapiens) (UniProt Q86V86). Nature of the assay: Inhibition of wild-type human partial length PIM3 (G16 to A317 residues) expressed in bacterial expression system at 1 uM by Kinomescan method relative to control.
Assay [16] has as its target Serine/threonine-protein kinase TAO1 (Homo sapiens) (UniProt Q7L7X3). Nature of the assay: Inhibition of wild-type human partial length TAOK1 (M1 to A320 residues) expressed in mammalian expression system at 1 uM by Kinomescan method relative to control.
In assay [17] the test system is B cell. As to the kind of experiment: Antiproliferative activity against goat anti-human IgM antibody/recombinant human IL4-stimulated human PBMC-derived B cells assessed as decrease in cell viability pretreated for 30 mins followed by goat anti-human IgM antibody/recombinant human IL4 stimulation for 3 days by CellTiter-Glo reagent assay. The assay is classed as functional, cell-based. A general note: In ATP-based viability assays light output follows the ATP content of the culture.

The test system of assay [18] is B cell. As to the kind of experiment: Antiproliferative activity against goat anti-human IgM antibody-stimulated human PBMC-derived B cells assessed as decrease in cell viability pretreated for 30 mins followed by goat anti-human IgM antibody stimulation for 3 days by CellTiter-Glo reagent assay. The assay is classed as functional, cell-based.
Assay [19] has as its system B cell. Nature of the assay: Antiproliferative activity against goat anti-human IgM antibody/BAFF-stimulated human PBMC-derived B cells assessed as decrease in cell viability pretreated for 30 mins followed by goat anti-human IgM antibody/BAFF stimulation for 3 days by CellTiter-Glo reagent assay. The assay is classed as functional, cell-based.
Assay [20] concerns the target Cyclin-dependent kinase 3 (Homo sapiens) (UniProt Q00526). As to the kind of experiment: Inhibition of wild-type human full length CDK3 (M1 to H305 residues) expressed in bacterial expression system at 10 uM by Kinomescan method relative to control.
The target of assay [21] is Serine/threonine-protein kinase Chk2 (Homo sapiens) (UniProt O96017). Nature of the assay: Inhibition of wild-type human partial length CHEK2 (S253 to E574 residues) expressed in bacterial expression system at 10 uM by Kinomescan method relative to control.
Assay [22] has as its target Dual specificity protein kinase CLK3 (Homo sapiens) (UniProt P49761). Nature of the assay: Inhibition of wild-type human full length CLK3 (M1 to R490 residues) expressed in bacterial expression system at 10 uM by Kinomescan method relative to control.
Assay [23] deals with Myotonin-protein kinase (Homo sapiens) (UniProt Q09013). Nature of the assay: Inhibition of wild-type human partial length DMPK (V47 to V415 residues) expressed in bacterial expression system at 10 uM by Kinomescan method relative to control.
Assay [24] addresses Vascular endothelial growth factor receptor 3 (Homo sapiens) (UniProt P35916). Nature of the assay: Inhibition of wild-type human partial length FLT4 (E821 to E1196 residues) expressed in bacterial expression system at 10 uM by Kinomescan method relative to control.
Assay [25] concerns the target Serine/threonine-protein kinase 33 (Homo sapiens) (UniProt Q9BYT3). Nature of the assay: Inhibition of wild-type human full length STK33 (M1 to L514 residues) expressed in bacterial expression system at 10 uM by Kinomescan method relative to control.

In the case of `O=C(Nc1cccc([C@@H]2CN(c3ncnc4[nH]ccc34)CCN2CCO)c1)Nc1c(F)cccc1N1CCCC1`, the equilibrium dissociation constant (Kd) in [1] is 5 nM; in assay [2], 420 nM; in assay [3], 530 nM. Also, the 50% inhibitory concentration (IC50) at Cytochrome P450 3A4 was above 5000 nM; against Cytochrome P450 2C9, above 5000 nM; against Cytochrome P450 2C19, above 5000 nM; against Cytochrome P450 1A2, above 5000 nM; with B cell [17] it was 238 to 240 nM; with B cell [18] it was 251 nM. Besides, the IC50 with B cell [19] came out at 92 nM. Further, the inhibition in [4] was found to be 20%; in [5], 78%; in assay [6], 87%; in assay [7] it was 77%; in assay [8], 96%; in assay [9] it was 100%. Besides, the inhibition in assay [10] stood at 65%; in assay [11], 56%; in [12] it was 100%; in assay [13] it was 89%; in assay [14], 86%; in [15] it was 89%. Also, the inhibition in assay [16] was found to be 79%.
Consider `O=C(Nc1cccc([C@H]2CCCN(c3ncnc4[nH]ccc34)C2)c1)Nc1ccccc1N1CCCC1`, for which the inhibition in assay [20] came to 86%; in assay [21], 47%; in assay [22], 87%; in assay [23] it was 100%; in assay [24], 0.55%; in assay [25] it was 100%. The results for the Kd in [1], in assay [2] and in assay [3] were 400 nM, above 1000 nM and above 1000 nM, respectively. For the same molecule, the IC50 on Cytochrome P450 3A4 amounted to 1000 nM; against Cytochrome P450 2C9 it was 1800 nM; against Cytochrome P450 2C19 it was 2200 nM; at Cytochrome P450 1A2, 2200 nM; with B cell [17], 1880 nM; with B cell [18] it was 1010 nM. Besides, the half-maximal inhibitory concentration (IC50) with B cell [19] came out at 916 nM.
